Measured values: patent US20240350493A1 (Kadmon Corporation, LLC, priority 2022, published 2024)
In brackets after ≈: the same amount, converted by molar mass. Read-outs that look alike come from different tables or passages of the source.

Assays:
[1] = food effect study, 5 × 100 mg capsules (KD025-105); assay type: in vivo, human; conditions: for AUC(0-t) / AUC(0-inf) / Cmax / Tmax / half-life: male, human, plasma, oral, 500 mg, 5 × 100 mg capsules; for Tmax: read-out: Tmax, median (range)
Protocol: Both studies were single-center, open-label, randomized, single dose crossover studies in healthy males.
Water was permitted ad libitum except for 1 hour pre-and post-dose.
In both studies, serial blood samples for PK analysis were collected at pre-dose and 1, 2, 4, 6, 8, 12, 16, 24, and 36 hours post-dose. An additional sample at 30 hours post-dose was collected in the first study; additional samples were collected 3, 5, and 48 hours post-dose in the second study. Blood samples (5-6 mL per sample) were collected in K3EDTA tubes on ice and were processed within 30 minutes of collection, then frozen at approximately-70 to −80° C. shortly after collection.
Sample preparation was performed by protein precipitation.
Statistical analyses were performed in SAS using the PROC MIXED procedure and the Restricted Maximum Likelihood estimation method. In both studies, the presence of a food effect was evaluated by a formal statistical analysis on natural log-transformed AUC and Cmax using mixed effect modeling techniques. The model included treatment, period, and sequence as fixed effects and subject nested within sequence as a random effect. Adjusted geometric mean ratios (GMRs) and their 90% confidence intervals (CIs) were calculated for fed (test) versus fasted (reference) treatments. The absence of a food effect was to be concluded if the 90% CI was within the bioequivalence limits of 80.00 to 125.00%.

CYP2C8 = CYP2C8 (Homo sapiens, UniProt P10632); experiment: incubations with recombinant enzymes; assay type: in vitro ADME
[2] = test system: bacterial mutagenicity (Ames); experiment: in vitro bacterial mutagenicity (Ames) assay; assay type: cell-based
pregnant rabbits [3] = conditions: female, rabbit, in vivo, po
P-gp [4] = target: T1, P-gp (Homo sapiens, UniProt P08183); experiment: transporter inhibition, in vitro; assay type: in vitro ADME; conditions: at clinically relevant concentrations
OATPIB1 = OATPIB1 (Homo sapiens, UniProt Q9Y6L6); experiment: transporter inhibition, in vitro; assay type: in vitro ADME; conditions: at clinically relevant concentrations
CYP2D6 = CYP2D6 (Homo sapiens, UniProt P10635); experiment: enzyme inhibition, in vitro; assay type: in vitro ADME
CYP2C19 = CYP2C19 (Homo sapiens, UniProt P33261); experiment: incubations with recombinant enzymes; assay type: in vitro ADME
[5] = pharmacokinetics in healthy subjects (label); assay type: in vivo, human
[6] = previously conducted solubility studies; assay type: physicochemical
Protocol: Rabeprazole, a strong PPI, suppresses the secretion of gastric acid by noncompetitive blockade of H+/K+-adenosine triphosphatase at the secretory surface of gastric parietal cells, thereby raising the intra-gastric pH above 3.0. The recommended starting dose of sodium rabeprazole for subjects with GI ulcers and GERD is 20 mg per day and for subjects with hypersecretory syndromes is 60 mg per day (Accord-UK Ltd. Summary of Product Characteristics: Rabeprazole 20 mg Gastro-resistant Tablets, available at www.medicines.org.uk/emc/medicine/27143/SPC/Rabeprazole+20 mg+Gastro-resistant+Tablets/. Updated 16 Apr. 2020. Accessed 12 Aug. 2021).

UGT1A1 = UGT1A1 (Homo sapiens, UniProt P22309); experiment: enzyme inhibition, in vitro; assay type: in vitro ADME
dogs = experiment: general toxicology studies, dogs; assay type: in vivo, dog
pregnant rats = experiment: embryo-fetal development studies in rats; assay type: in vivo, rat
Protocol: In the pilot study, maternal toxicity and embryo-fetal developmental effects were observed. Maternal toxicity (reduced body weight gain) occurred at 150 and 300 mg/kg/day doses. Increased post-implantation loss occurred at 50 and 300 mg/kg/day.

pregnant rabbits [7] = experiment: embryo-fetal developmental study in rabbits; conditions: rabbit
UGT1A9 = UGT1A9 (Homo sapiens, UniProt O60656); experiment: enzyme inhibition, in vitro; assay type: in vitro ADME
rats [8] = experiment: combined male and female rat fertility study; assay type: in vivo
Text: In a combined male and female rat fertility study, belumosudil-treated male animals were mated with untreated females, or untreated males were mated with belumosudil-treated females.

rats [9] = experiment: general toxicology studies, rats; assay type: in vivo, rat
pH-dependent solubility = assay type: physicochemical
CYP3A4 = CYP3A4 (Homo sapiens, UniProt P08684); experiment: incubations with recombinant enzymes; assay type: in vitro ADME
rat bone marrow = experiment: in vivo rat bone marrow micronucleus assay
P-gp [10] = target: T1, P-gp; experiment: transporter substrate, in vitro; assay type: in vitro ADME
[11] = single oral dose of radiolabeled belumosudil

T1 sequence (P08183 whole entry): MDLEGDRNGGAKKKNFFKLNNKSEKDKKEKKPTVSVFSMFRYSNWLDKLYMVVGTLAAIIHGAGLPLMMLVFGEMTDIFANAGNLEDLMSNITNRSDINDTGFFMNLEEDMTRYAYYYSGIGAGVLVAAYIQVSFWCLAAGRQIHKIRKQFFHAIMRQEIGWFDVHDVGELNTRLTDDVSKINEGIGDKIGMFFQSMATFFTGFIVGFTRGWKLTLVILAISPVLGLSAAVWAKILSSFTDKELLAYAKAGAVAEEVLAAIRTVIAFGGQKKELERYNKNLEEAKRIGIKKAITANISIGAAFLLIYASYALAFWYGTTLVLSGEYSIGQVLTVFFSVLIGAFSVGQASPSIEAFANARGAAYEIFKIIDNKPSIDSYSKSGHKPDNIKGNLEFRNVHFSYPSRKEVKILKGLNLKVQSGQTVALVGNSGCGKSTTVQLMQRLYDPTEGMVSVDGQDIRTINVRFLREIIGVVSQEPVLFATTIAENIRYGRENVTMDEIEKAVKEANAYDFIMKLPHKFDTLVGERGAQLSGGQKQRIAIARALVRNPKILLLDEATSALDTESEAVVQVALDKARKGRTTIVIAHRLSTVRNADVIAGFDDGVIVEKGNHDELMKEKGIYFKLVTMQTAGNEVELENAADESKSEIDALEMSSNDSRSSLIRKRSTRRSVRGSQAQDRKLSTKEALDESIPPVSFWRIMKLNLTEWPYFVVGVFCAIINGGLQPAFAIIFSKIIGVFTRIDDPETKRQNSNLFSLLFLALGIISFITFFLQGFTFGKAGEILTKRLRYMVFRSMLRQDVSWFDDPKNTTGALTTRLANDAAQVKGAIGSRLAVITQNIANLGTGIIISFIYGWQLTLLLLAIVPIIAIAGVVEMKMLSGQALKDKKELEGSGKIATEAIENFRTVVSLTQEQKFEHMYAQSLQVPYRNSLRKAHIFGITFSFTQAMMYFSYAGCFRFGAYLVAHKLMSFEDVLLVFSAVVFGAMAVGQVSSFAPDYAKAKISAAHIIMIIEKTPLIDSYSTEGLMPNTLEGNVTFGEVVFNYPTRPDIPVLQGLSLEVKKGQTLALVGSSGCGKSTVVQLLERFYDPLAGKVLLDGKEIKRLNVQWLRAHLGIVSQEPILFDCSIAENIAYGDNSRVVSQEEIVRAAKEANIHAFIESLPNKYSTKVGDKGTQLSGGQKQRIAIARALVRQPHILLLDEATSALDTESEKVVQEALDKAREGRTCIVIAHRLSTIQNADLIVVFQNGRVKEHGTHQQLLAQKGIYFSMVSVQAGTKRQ
Chain of CYP2D6 (P10635 whole entry): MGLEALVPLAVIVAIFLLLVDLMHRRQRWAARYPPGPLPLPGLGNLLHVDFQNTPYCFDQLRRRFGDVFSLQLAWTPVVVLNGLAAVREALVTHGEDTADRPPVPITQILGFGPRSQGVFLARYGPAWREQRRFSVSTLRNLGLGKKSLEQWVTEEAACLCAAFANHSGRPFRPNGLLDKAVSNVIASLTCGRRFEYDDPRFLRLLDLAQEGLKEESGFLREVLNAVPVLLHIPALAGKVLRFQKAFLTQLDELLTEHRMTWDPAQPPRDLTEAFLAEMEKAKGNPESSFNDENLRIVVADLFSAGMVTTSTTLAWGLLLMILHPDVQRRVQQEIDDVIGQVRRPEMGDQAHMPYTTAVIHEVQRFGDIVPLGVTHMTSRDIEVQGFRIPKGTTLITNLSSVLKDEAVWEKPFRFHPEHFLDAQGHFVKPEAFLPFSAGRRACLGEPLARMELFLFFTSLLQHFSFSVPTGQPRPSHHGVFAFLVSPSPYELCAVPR
Chain of UGT1A1 (P22309 26-533): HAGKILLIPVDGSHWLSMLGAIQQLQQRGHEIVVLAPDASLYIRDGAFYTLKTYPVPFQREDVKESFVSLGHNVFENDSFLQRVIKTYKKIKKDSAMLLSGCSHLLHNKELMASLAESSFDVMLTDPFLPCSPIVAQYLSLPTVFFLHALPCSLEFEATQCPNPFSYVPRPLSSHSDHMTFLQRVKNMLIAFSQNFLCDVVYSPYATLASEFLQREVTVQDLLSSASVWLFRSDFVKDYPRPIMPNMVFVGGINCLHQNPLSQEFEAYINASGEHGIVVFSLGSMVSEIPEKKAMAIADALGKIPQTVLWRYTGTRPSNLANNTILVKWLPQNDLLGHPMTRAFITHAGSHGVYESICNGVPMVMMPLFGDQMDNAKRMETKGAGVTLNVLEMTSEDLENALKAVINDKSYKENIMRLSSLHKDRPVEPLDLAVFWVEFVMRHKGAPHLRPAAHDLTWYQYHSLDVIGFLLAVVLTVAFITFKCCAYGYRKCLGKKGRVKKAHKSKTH
Chain of CYP2C8 (P10632 whole entry): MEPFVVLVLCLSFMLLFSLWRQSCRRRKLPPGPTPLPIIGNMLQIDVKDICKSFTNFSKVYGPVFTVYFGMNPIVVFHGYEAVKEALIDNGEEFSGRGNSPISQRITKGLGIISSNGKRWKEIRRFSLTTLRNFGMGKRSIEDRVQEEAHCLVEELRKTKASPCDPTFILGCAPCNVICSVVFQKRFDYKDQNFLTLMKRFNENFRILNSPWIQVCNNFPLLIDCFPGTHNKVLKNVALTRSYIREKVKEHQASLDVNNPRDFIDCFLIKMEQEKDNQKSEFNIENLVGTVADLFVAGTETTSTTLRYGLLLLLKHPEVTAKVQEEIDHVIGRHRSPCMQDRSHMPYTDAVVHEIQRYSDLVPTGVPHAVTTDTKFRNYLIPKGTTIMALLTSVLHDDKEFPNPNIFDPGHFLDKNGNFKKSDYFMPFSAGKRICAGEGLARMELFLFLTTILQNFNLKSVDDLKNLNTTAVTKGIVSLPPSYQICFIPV
Chain of OATPIB1 (Q9Y6L6 whole entry): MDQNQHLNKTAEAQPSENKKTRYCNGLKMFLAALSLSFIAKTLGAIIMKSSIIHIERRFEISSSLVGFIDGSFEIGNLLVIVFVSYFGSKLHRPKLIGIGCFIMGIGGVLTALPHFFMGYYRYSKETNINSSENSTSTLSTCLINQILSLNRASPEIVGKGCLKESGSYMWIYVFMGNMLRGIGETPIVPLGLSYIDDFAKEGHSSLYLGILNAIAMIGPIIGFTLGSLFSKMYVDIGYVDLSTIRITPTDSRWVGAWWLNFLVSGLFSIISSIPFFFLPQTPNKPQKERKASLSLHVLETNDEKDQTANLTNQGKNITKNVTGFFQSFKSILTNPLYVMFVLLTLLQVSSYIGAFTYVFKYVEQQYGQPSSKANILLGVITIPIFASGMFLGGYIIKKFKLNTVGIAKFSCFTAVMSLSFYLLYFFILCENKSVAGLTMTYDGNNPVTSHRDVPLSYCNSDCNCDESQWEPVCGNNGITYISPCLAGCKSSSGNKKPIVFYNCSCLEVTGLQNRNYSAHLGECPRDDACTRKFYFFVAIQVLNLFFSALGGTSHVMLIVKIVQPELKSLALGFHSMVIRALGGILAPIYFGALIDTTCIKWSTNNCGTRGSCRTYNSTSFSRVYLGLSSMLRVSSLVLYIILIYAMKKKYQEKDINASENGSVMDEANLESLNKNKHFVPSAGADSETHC
Chain of CYP3A4 (P08684 whole entry): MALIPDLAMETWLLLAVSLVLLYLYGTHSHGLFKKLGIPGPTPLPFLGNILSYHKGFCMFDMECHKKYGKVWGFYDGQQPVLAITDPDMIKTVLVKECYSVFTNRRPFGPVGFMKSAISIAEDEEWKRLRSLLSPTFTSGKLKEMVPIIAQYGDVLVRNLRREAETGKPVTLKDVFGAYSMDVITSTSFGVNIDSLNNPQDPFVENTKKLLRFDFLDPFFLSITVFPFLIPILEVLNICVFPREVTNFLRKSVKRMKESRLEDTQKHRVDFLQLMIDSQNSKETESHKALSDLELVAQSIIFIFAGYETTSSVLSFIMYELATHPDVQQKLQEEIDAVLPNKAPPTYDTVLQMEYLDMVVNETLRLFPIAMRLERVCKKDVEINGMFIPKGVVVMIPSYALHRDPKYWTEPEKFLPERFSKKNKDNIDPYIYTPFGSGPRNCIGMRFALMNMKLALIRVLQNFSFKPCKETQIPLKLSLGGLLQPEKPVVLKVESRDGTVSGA
Chain of UGT1A9 (O60656 26-530): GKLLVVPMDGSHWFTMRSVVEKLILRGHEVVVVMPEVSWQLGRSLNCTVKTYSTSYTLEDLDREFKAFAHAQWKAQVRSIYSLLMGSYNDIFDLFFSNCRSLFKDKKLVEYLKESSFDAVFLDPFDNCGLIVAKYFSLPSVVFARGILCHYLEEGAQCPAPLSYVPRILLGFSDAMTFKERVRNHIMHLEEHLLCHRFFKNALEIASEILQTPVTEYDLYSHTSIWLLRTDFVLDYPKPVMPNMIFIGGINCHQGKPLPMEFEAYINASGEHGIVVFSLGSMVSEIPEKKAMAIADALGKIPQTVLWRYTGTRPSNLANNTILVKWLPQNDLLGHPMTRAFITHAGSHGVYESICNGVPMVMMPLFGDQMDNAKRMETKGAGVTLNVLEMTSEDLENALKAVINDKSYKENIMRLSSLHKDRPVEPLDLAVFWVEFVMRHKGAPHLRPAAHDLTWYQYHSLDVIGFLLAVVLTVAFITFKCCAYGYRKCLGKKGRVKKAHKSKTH
Chain of CYP2C19 (P33261 whole entry): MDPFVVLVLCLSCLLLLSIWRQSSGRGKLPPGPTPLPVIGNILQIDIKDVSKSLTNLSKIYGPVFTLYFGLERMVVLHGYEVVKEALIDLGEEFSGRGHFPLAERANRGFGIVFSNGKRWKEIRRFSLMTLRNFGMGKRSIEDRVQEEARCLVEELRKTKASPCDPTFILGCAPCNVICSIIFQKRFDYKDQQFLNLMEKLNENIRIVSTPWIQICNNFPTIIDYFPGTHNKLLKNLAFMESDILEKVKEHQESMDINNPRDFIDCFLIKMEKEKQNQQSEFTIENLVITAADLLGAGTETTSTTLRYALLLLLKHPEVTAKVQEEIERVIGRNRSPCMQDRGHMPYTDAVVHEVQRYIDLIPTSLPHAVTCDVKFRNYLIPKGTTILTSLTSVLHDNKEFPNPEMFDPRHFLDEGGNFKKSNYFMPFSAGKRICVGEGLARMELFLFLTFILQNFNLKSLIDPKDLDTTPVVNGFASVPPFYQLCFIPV

Compound: CC(C)NC(=O)COc1cccc(-c2nc(Nc3ccc4[nH]ncc4c3)c3ccccc3n2)c1 [Belumosudil, 2-{3-[4-(1H-indazol-5-ylamino)-2-quinazolinyl]phenoxy}-N-(propan-2-yl) acetamide]
- GMRs fed vs fasted for Cmax and AUC ([1]; 500 mg capsules): above 125%
- AUC(0-t) ([1]; fasted, read-out: AUC0-24, arithmetic mean (SD)): 7.98 µg·h/mL
- AUC(0-t) ([1]; fasted, read-out: AUC0-24, geometric mean (geometric CV %)): 7.6 µg·h/mL
- AUC(0-inf) ([1]; fasted, read-out: AUCinf, arithmetic mean (SD)): 8.7 µg·h/mL
- AUC(0-inf) ([1]; fasted, read-out: AUCinf, geometric mean (geometric CV %)): 8.31 µg·h/mL
- AUC(0-t) ([1]; fasted, read-out: AUClast, arithmetic mean (SD)): 8.59 µg·h/mL
- AUC(0-t) ([1]; fasted, read-out: AUClast, geometric mean (geometric CV %)): 8.19 µg·h/mL
- Cmax ([1]; fasted, read-out: Cmax, arithmetic mean (SD)): 1.58 µg/mL
- Cmax ([1]; fasted, read-out: Cmax, geometric mean (geometric CV %)): 1.5 µg/mL
- Tmax ([1]; fasted): 2 h
- half-life ([1]; fasted, read-out: t1/2, arithmetic mean (SD) (converted)): 9.5 h
- half-life ([1]; fasted, read-out: t1/2, geometric mean (geometric CV %) (converted)): 9 h
- AUC(0-t) ([1]; fed, read-out: AUC0-24, arithmetic mean (SD)): 25.1 µg·h/mL
- AUC(0-t) ([1]; fed, read-out: AUC0-24, geometric mean (geometric CV %)): 23.3 µg·h/mL
- AUC(0-inf) ([1]; fed, read-out: AUCinf, arithmetic mean (SD)): 26.9 µg·h/mL
- AUC(0-inf) ([1]; fed, read-out: AUCinf, geometric mean (geometric CV %)): 25.1 µg·h/mL
- AUC(0-t) ([1]; fed, read-out: AUClast, arithmetic mean (SD)): 26.2 µg·h/mL
- AUC(0-t) ([1]; fed, read-out: AUClast, geometric mean (geometric CV %)): 24.4 µg·h/mL
- Cmax ([1]; fed, read-out: Cmax, arithmetic mean (SD)): 4.28 µg/mL
- Cmax ([1]; fed, read-out: Cmax, geometric mean (geometric CV %)): 3.78 µg/mL
- Tmax ([1]; fed): 4 h
- half-life ([1]; fed, read-out: t1/2, arithmetic mean (SD) (converted)): 8 h
- half-life ([1]; fed, read-out: t1/2, geometric mean (geometric CV %) (converted)): 7.9 h
- share of belumosudil metabolism (CYP2C8): 14.2%
- genotoxicity [2]: not genotoxic
- doses with embryo-fetal effects (pregnant rabbits [3]): ≥ 50 mg/kg/day
- doses with maternal toxicity (body weight loss and mortality) (pregnant rabbits [3]): ≥ 125 mg/kg/day
- P-gp inhibition (P-gp [4]): inhibits
- OATPIB1 inhibition (OATPIB1): inhibits
- CYP2D6 inhibition (CYP2D6): inhibitor
- share of belumosudil metabolism (CYP2C19): < 5%
- increase in AUC with high-fat and high-calorie meal vs fasted ([5]; single dose): 2 times
- increase in Cmax with high-fat and high-calorie meal vs fasted ([5]; single dose): 2.2 times
- radioactivity recovered in feces [5, 11]: 85%
- radioactivity recovered in urine [5, 11]: less than 5%
- recovered in feces as unchanged [5, 11]: 30%
- solubility ([6]; pH 2.7, aqueous buffer): > 0.1 mg/mL
- solubility ([6]; pH 6.5, aqueous buffer): ~0.004 mg/mL (≈ 8.84 µM)
- solubility ([6]; pH 7.4, aqueous buffer): ~0.003 mg/mL (≈ 6.63 µM)
- UGT1A1 inhibition (UGT1A1): inhibitor
- dose with spermatozoa degeneration (dogs): 35 mg/kg/day
- doses with fetal malformations (pregnant rats; pilot study, oral, period of organogenesis): ≥ 50 mg/kg/day
- maternal exposures (AUC) with adverse developmental outcomes, times human exposure at recommended dose (pregnant rats; rat): ≥ 3 times
- maternal exposures (AUC) with adverse developmental outcomes, times human exposure at recommended dose (pregnant rabbits [7]): ≥ 0.07 times
- UGT1A9 inhibition (UGT1A9): inhibitor
- dose with increased pre-or post-implantation loss and decreased number of viable embryos (rats [8]; female rats, treated or mated with treated males): 275 mg/kg/day
- dose with abnormal sperm findings and testes/epididymis organ changes (rats [8]; male rats): 275 mg/kg/day
- dose with reduced fertility (rats [8]; treated males or females): 275 mg/kg/day
- dose with decreased follicular development in ovaries (rats [9]): 275 mg/kg/day
- solubility (pH-dependent solubility; pH 1.08, simulated gastric fluid): 0.011 mg/mL (≈ 24.3 µM)
- solubility (pH-dependent solubility; pH 1.6, simulated gastric fluid): 1.64 mg/mL (≈ 3630 µM)
- solubility (pH-dependent solubility; pH 6.5, aqueous buffer): 0.003 mg/mL (≈ 6.63 µM)
- solubility (pH-dependent solubility; simulated gastric fluid, pH 2.0): 1.43 mg/mL (≈ 3170 µM)
- share of belumosudil metabolism (CYP3A4): 41.9%
- genotoxicity (rat bone marrow): not genotoxic
- P-gp substrate (P-gp [10]): substrate
